Data as given in ChEMBL document CHEMBL1201862, “PubChem BioAssay data set” (2004).
The source made the active and inactive calls.

Columns and labels:
[1] = NIH-3T3 fibroblast cytotoxicity, dose response, cytotoxicity control, cell-based, fluorescence, Alamar Blue, secondary assay (AID 2327); assay type: functional;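 further: NIH-3T3 mouse fibroblasts cultured with fluconazole at 8 µg/mL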
[2] = Luminescence Cell-Based Dose Retest to Confirm Inhibitors of Cancer Stem Cells. [Related pubchem assays (depositor defined):AID2717, AID2721]; assay type: functional; conditions: Homo sapiens
[3] = biological target: T1, Histone-lysine N-methyltransferase NSD2 (Homo sapiens, UniProt O96028); assay type: biochemical
T1 sequence (O96028 whole entry): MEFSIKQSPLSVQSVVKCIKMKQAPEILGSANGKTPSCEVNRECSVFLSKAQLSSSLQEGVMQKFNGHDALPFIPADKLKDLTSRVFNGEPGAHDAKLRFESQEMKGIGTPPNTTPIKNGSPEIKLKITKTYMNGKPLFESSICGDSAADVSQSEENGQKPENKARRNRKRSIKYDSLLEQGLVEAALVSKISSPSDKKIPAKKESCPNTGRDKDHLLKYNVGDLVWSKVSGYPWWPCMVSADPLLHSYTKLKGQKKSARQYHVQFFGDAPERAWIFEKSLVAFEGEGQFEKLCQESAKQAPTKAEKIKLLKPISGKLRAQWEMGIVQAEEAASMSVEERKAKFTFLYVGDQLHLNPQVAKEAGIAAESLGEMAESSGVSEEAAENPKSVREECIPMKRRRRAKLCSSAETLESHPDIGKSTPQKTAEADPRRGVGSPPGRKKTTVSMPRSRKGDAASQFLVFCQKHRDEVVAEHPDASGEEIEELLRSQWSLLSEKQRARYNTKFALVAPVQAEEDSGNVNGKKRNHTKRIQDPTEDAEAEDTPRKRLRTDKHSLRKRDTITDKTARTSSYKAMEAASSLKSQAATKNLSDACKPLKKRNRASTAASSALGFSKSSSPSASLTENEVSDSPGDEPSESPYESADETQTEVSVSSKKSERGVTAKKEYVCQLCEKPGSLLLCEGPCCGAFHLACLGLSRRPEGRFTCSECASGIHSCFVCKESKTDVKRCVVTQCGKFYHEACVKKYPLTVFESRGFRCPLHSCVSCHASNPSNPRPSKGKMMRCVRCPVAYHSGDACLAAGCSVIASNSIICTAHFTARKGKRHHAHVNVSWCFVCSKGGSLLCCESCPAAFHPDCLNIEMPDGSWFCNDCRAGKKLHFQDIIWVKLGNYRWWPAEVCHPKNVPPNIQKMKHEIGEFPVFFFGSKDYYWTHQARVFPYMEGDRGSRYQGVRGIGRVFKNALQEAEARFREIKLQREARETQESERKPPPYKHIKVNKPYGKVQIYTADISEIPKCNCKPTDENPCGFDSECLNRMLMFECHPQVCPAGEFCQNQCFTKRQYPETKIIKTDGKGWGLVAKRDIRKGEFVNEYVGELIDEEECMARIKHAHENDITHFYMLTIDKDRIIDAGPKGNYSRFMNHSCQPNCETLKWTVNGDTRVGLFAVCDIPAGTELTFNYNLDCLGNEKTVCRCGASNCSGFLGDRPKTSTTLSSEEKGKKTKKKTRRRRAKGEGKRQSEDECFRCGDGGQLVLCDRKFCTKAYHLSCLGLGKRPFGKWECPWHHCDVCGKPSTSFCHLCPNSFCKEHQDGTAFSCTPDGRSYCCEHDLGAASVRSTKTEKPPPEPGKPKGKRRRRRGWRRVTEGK

[4] = non-specific 3'UTR reporter inhibition in Clone20-Shn3RL – cell-based, Renilla luciferase, cherry-picked, counter-screen for Shn3 inhibitor project, dose response (AID 624133); assay type: functional
[5] = loss of viability in HepG2 cells – cell-based, CellTiter-Glo, cherry-picked, cytotoxicity control for Shn3 inhibitor project, dose response (AID 624134); assay type: functional
[6] = biological target: Intestinal-type alkaline phosphatase (Homo sapiens, UniProt P09923); experiment: human intestinal alkaline phosphatase activators, dose response, biochemical, luminescence, uHTS hits (AID 463120); assay type: functional
[7] = biological target: Maternal embryonic leucine zipper kinase (Homo sapiens, UniProt Q14680); assay type: functional
Maternal embryonic leucine zipper kinase, sequence (Q14680 whole entry): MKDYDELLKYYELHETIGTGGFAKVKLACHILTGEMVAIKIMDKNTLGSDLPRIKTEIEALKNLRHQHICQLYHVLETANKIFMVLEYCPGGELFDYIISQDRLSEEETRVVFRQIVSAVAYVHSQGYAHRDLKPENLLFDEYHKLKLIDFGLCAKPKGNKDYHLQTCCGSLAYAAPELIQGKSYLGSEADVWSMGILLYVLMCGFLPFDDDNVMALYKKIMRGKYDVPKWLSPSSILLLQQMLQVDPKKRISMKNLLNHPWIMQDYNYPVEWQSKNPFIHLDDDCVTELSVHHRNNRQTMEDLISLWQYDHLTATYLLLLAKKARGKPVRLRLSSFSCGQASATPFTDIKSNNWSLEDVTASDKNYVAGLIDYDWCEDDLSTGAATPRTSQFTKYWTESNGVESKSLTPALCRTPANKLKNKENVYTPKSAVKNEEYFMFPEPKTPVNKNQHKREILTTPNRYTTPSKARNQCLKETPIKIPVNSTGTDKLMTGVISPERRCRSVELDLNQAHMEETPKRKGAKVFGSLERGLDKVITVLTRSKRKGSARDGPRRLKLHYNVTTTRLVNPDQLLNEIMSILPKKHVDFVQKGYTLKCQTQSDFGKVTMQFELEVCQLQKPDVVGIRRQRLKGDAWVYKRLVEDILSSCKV

[8] = biological target: Cyclin-dependent kinase 5 (Homo sapiens, UniProt Q00535); assay type: functional;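 further: CDK5 measured as one member of a kinase profiling panel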
Cyclin-dependent kinase 5, sequence (Q00535 whole entry): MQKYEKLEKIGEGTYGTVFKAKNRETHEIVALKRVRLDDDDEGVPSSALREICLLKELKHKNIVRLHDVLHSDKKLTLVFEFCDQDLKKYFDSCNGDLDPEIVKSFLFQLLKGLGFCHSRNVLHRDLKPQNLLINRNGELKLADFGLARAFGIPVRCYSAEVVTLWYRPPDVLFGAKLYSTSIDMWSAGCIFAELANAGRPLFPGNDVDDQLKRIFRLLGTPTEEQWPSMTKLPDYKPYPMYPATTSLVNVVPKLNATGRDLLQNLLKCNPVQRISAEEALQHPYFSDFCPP

[9] = biological target: Platelet-derived growth factor receptor alpha (Homo sapiens, UniProt P16234); experiment: Navigating the Kinome. Panel member name: PDGFRA; assay type: functional
[10] = biological target: Serine/threonine-protein kinase Chk2 (Homo sapiens, UniProt O96017); assay type: functional;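 further: CHEK2 entry within a kinome-wide screening panel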
[11] = biological target: Proto-oncogene tyrosine-protein kinase ROS (Homo sapiens, UniProt P08922); assay type: functional;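 further: ROS1 tested as one member of a kinome-wide kinase panel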
[12] = biological target: Calcium/calmodulin-dependent protein kinase type II subunit delta (Homo sapiens, UniProt Q13557); assay type: functional
Calcium/calmodulin-dependent protein kinase type II subunit delta, sequence (Q13557 whole entry): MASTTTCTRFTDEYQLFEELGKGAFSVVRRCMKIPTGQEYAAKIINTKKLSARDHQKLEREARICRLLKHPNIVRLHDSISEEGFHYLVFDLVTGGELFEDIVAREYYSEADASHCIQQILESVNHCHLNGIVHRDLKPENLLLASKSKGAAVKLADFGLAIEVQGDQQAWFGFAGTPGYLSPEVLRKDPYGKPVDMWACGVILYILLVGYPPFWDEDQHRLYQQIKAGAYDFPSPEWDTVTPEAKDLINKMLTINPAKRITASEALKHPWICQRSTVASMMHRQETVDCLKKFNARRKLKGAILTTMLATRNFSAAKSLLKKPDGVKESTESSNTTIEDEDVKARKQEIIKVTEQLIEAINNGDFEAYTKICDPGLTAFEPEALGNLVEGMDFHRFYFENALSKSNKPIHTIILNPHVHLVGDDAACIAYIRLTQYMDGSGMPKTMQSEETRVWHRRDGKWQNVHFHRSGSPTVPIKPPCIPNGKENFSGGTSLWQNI

[13] = biological target: Tyrosine-protein kinase BTK (Homo sapiens, UniProt Q06187); assay type: functional
Tyrosine-protein kinase BTK, sequence (Q06187 whole entry): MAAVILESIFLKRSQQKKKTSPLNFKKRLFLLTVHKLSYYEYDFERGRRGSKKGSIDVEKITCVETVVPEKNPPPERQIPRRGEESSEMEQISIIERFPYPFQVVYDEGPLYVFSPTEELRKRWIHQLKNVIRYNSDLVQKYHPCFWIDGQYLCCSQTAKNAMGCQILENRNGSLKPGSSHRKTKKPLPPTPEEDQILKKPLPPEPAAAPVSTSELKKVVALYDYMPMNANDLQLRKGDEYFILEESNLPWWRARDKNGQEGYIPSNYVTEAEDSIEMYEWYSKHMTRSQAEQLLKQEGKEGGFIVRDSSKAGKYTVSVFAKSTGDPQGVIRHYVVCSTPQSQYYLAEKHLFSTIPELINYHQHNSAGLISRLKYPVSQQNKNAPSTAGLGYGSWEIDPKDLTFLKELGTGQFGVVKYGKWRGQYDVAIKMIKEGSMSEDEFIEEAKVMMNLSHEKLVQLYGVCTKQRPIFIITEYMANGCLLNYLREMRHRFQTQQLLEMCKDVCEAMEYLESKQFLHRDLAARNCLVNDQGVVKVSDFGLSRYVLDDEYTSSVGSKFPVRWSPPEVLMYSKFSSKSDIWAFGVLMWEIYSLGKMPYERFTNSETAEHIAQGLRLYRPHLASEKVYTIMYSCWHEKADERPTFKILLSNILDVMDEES

[14] = biological target: Tyrosine-protein kinase JAK2 (Homo sapiens, UniProt O60674); assay type: functional;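 further: JAK2 tested as one member of a kinase panel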
[15] = biological target: Cyclin-dependent kinase 7 (Homo sapiens, UniProt P50613); assay type: functional;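 further: value comes from a kinome-wide kinase profiling panel in which CDK7 is one member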
[16] = biological target: Eukaryotic elongation factor 2 kinase (Homo sapiens, UniProt O00418); assay type: functional
Eukaryotic elongation factor 2 kinase, sequence (O00418 whole entry, canonical isoform): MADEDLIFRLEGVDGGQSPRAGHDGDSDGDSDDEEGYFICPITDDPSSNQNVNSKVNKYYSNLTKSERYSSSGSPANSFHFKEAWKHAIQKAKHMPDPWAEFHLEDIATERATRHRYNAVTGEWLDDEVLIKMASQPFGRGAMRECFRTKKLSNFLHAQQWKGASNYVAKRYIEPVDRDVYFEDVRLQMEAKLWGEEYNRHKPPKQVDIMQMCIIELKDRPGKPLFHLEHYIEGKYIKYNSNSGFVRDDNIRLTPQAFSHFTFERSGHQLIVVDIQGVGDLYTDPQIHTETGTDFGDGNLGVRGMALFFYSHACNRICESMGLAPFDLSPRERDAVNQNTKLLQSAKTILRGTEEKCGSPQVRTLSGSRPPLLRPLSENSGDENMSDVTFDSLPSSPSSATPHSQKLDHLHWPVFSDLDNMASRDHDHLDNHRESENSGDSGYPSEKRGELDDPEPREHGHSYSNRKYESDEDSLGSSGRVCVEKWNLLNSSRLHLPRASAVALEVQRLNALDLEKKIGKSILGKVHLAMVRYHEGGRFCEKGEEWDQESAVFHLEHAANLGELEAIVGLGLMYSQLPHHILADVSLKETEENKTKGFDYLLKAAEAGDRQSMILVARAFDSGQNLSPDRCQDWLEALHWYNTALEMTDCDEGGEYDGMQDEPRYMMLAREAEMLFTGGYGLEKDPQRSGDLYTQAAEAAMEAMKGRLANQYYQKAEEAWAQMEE

[17] = biological target: Casein kinase I isoform delta (Homo sapiens, UniProt P48730); assay type: functional;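 further: measured as one member (CSNK1D) of a kinome panel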
Casein kinase I isoform delta, sequence (P48730 whole entry, canonical isoform): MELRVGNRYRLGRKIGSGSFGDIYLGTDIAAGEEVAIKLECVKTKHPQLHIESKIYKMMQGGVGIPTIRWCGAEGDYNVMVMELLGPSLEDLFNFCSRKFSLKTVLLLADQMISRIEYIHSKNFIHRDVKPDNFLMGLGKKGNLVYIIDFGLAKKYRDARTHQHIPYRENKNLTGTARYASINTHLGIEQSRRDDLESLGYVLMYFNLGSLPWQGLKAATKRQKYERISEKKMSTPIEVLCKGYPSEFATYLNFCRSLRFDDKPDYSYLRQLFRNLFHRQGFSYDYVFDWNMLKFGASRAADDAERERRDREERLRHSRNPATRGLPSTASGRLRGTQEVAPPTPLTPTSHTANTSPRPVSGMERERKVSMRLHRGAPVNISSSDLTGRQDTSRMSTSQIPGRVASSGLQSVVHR

[18] = biological target: Serine/threonine-protein kinase DCLK1 (Homo sapiens, UniProt O15075); assay type: functional;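 further: affinity for DCLK1 (listed as DCAMKL1) measured as one member of a kinome-wide kinase profiling panel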
Serine/threonine-protein kinase DCLK1, sequence (O15075 whole entry): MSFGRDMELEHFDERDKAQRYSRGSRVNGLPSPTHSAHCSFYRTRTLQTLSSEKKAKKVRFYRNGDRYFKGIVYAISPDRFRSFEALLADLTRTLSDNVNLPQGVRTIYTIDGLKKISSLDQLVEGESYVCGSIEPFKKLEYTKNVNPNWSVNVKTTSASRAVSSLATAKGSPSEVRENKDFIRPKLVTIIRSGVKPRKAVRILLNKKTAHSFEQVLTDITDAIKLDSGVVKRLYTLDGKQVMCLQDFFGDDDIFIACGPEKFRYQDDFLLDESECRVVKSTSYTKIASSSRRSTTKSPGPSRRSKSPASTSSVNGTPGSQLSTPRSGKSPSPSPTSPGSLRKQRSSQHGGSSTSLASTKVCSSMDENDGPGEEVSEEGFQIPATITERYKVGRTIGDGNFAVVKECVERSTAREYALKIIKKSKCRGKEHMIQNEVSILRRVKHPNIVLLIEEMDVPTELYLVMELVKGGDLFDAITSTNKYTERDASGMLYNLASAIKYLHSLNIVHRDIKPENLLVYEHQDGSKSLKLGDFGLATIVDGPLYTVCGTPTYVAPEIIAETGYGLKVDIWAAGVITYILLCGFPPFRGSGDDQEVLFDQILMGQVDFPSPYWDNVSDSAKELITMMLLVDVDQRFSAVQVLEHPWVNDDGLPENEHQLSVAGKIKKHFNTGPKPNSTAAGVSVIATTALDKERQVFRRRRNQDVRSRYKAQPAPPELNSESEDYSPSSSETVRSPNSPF

[19] = biological target: Calcium/calmodulin-dependent protein kinase type II subunit beta (Homo sapiens, UniProt Q13554); assay type: functional
[20] = biological target: Glycogen synthase kinase-3 beta (Homo sapiens, UniProt P49841); assay type: functional;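 further: value comes from a broad kinome profiling panel, with GSK3B as the panel member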
[21] = biological target: Serine/threonine-protein kinase Nek2 (Homo sapiens, UniProt P51955); assay type: functional
Serine/threonine-protein kinase Nek2, sequence (P51955 whole entry): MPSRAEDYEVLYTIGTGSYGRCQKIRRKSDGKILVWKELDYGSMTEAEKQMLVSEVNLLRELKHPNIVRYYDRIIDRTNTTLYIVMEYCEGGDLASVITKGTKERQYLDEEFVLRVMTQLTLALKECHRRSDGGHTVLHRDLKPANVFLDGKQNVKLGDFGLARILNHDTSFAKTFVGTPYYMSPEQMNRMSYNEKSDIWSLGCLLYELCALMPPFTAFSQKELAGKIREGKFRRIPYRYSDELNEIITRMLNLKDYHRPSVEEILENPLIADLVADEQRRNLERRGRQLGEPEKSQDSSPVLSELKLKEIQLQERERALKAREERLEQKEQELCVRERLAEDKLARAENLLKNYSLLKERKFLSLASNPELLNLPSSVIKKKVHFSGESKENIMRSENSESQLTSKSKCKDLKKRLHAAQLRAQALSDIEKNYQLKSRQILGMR

[22] = biological target: MAP kinase-interacting serine/threonine-protein kinase 2 (Homo sapiens, UniProt Q9HBH9); assay type: functional
MAP kinase-interacting serine/threonine-protein kinase 2, sequence (Q9HBH9 whole entry): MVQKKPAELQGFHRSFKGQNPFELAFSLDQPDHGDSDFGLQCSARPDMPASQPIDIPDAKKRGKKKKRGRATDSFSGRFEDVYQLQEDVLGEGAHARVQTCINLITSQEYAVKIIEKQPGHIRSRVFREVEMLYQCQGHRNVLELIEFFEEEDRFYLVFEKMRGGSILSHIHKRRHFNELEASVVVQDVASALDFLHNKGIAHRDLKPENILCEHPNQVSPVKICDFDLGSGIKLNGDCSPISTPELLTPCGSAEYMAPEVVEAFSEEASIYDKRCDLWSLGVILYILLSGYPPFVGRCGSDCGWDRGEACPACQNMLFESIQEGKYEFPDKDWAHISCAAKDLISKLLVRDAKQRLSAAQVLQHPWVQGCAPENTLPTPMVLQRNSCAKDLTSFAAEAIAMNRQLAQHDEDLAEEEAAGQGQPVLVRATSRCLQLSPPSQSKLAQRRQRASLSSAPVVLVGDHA

[23] = viability loss in THP-1 monocytes – THP-1 cells, cytotoxicity control for Vif-APOBEC3G degradation inhibitor project, dose response (AID 1117359); assay type: functional; conditions: THP-1

## CN(C)S(=O)(=O)Oc1cccc(C(=O)Nc2ccc(Cl)c(Cl)c2)c1
[1]
  EC50: > 150 µM (inactive)
[2]
  AC50: 8.64 µM (active)

## Cc1ccc2[nH]c(/C(C#N)=C/c3ccc(O)c(O)c3)nc2c1
[3]
  AC50: 4.37 µM (active)

## COC(=O)C1CN(C#N)N(c2ccc(Cl)cc2)C12c1ccccc1-c1ccccc12 (stereo not drawn)
[4]
  AC50: 3 µM (active)
[5]
  AC50: 8.85 µM (active)

## O=C(NN1C(=O)CSC1=S)C(=O)NN1C(=O)CSC1=S
[6]
  EC50: 9.21 µM (active)

## Nc1noc2cccc(-c3cccc(O)c3)c12
[7]
  Ki: > 1.58 µM (inactive)
[8]
  Ki: > 6.31 µM (inactive)
[9]
  Ki: 6.31 µM (active)
[10]
  Ki: > 1.58 µM (inactive)
[11]
  Ki: > 2 µM (inactive)
[12]
  Ki: 2.51 µM (active)
[13]
  Ki: > 39.8 µM (inactive)
[14]
  Ki: > 1.58 µM (inactive)
[15]
  Ki: 20 µM (active)
[16]
  Ki: > 3.98 µM (inactive)
[17]
  Ki: 6.31 µM (active)
[18]
  Ki: > 10 µM (inactive)
[19]
  Ki: > 7.94 µM (inactive)
[20]
  Ki: > 50.1 µM (inactive)
[21]
  Ki: > 10 µM (inactive)
[22]
  Ki: 1 µM (active)

## O=C1NC(=S)S/C1=C\C=C\c1ccc([N+](=O)[O-])o1
[23]
  CC50: 4.04 µM (active)
